Laboratory results: ChEMBL document CHEMBL1201862, “PubChem BioAssay data set” (2004)
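These data come from cells grown in 96-well plates and exposed to compound for 48 hours at five concentrations. GI50: concentration for 50% inhibition of growth.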 Activity calls are given as the source filed them. Cut-off read from the data, not from the text of the source: active = GI50 up to about 1.1 µM and inactive = higher.

What was measured:
Test in all cases: DTP human tumour cell line panel, 48 h
[1] = system: CAKI-1
[2] = system: DU-145
[3] = system: MDA-MB-435
[4] = system: SNB-19
[5] = system: U-251
[6] = system: HCC 2998
[7] = system: HL-60
[8] = system: EKVX
[9] = system: HCT-15
[10] = system: T47D
[11] = system: SK-OV-3
[12] = system: SR
[13] = system: OVCAR-3
[14] = system: NCI-H23
[15] = system: MOLT-4
[16] = system: ACHN
[17] = system: OVCAR-5
[18] = system: MDA-N

| SMILES | GI50 [1] | GI50 [2] | GI50 [3] | GI50 [4] | GI50 [5] | GI50 [6] | GI50 [7] | GI50 [8] | GI50 [9] [µM] | GI50 [10] | GI50 [11] | GI50 [12] | GI50 [13] | GI50 [14] | GI50 [15] | GI50 [16] | GI50 [17] | GI50 [18] |
| --- | --- | --- | --- | --- | --- | --- | --- | --- | --- | --- | --- | --- | --- | --- | --- | --- | --- | --- |
| COc1cc(/C=N\O)nc(-c2ccccn2)c1 | 0.303 µM (active) | 0.236 µM (active) | 1.6 µM (inactive) | 1.11 µM (active) | 0.553 µM (active) | 46.8 µM (inactive) | 0.124 µM (active) | 0.195 µM (active) | 0.092 | 1.18 µM (inactive) | 0.45 µM (active) | 0.0438 µM (active) | 0.222 µM (active) | 0.51 µM (active) | 0.173 µM (active) | 0.0923 µM (active) | 3.08 µM (inactive) |  |
| Nc1nc(N)c2c(n1)NC(c1ccccc1)CC(/C=C/c1ccc(Cl)cc1)=N2 (stereo unspecified) | 7.87 µM (inactive) | 9.23 µM (inactive) | 3.59 µM (inactive) | 12.8 µM (inactive) | 5.87 µM (inactive) |  | 10.2 µM (inactive) | 4.32 µM (inactive) | 5.97 | 5.83 µM (inactive) | 15.7 µM (inactive) |  | 5.62 µM (inactive) | 3.69 µM (inactive) | 1.89 µM (inactive) | 10.8 µM (inactive) | 17 µM (inactive) | 5.55 µM (inactive) |
| CC(=O)Oc1cc(Cl)c(C)c2c1[C@H]1CC[C@]3(C)[C@@H](OC(C)=O)CC[C@H]3[C@@H]1CC2 |  | > 100 µM (inactive) | > 100 µM (inactive) | > 100 µM (inactive) | 94.2 µM (inactive) | > 100 µM (inactive) | 53.6 µM (inactive) | > 100 µM (inactive) | 50.4 | 83.2 µM (inactive) |  |  | > 100 µM (inactive) | > 100 µM (inactive) | 78.2 µM (inactive) | > 100 µM (inactive) | > 100 µM (inactive) | > 100 µM (inactive) |
| O=C1CC(C(=O)N2CCCCC2)n2c(=O)n(-c3ccccc3)c(=O)n2C1 (stereo unspecified) | > 100 µM (inactive) | > 100 µM (inactive) |  | > 100 µM (inactive) |  | > 100 µM (inactive) |  | > 100 µM (inactive) | > 100 |  | > 100 µM (inactive) |  | > 100 µM (inactive) | > 100 µM (inactive) |  | > 100 µM (inactive) | > 100 µM (inactive) | > 100 µM (inactive) |
| N#CI1OC(C(F)(F)F)(C(F)(F)F)c2ccccc21 | 14.1 µM (inactive) | 18.6 µM (inactive) | 17.8 µM (inactive) |  | 21.2 µM (inactive) | 20 µM (inactive) | 5.77 µM (inactive) | 14.6 µM (inactive) | 15.1 | 18.1 µM (inactive) | > 100 µM (inactive) |  | 15.7 µM (inactive) | 18.6 µM (inactive) |  | 18.2 µM (inactive) | 19.2 µM (inactive) |  |
| CN1CCc2c(sc3nc(Nc4ccccc4)n(N)c(=O)c23)C1 | > 100 µM (inactive) | > 100 µM (inactive) |  | > 100 µM (inactive) |  |  | 19.8 µM (inactive) | > 100 µM (inactive) | > 100 | > 100 µM (inactive) |  |  | > 100 µM (inactive) | > 100 µM (inactive) | 65 µM (inactive) | > 100 µM (inactive) | > 100 µM (inactive) | > 100 µM (inactive) |
| O=C1CC(c2ccccc2Cl)Oc2ccccc21 (stereo unspecified) | 40.9 µM (inactive) | 45 µM (inactive) | 18.5 µM (inactive) | 34.9 µM (inactive) | 27.7 µM (inactive) | 71.1 µM (inactive) | 32.4 µM (inactive) | 14 µM (inactive) | 24.7 | 43 µM (inactive) | > 100 µM (inactive) | 23.2 µM (inactive) |  |  |  |  |  |  |
| O=CC1=C(C(=O)OC(c2ccccc2)c2ccccc2)N2C(=O)[C@@H](NC(=O)Cc3cccs3)[C@H]2SC1 | > 100 µM (inactive) | > 100 µM (inactive) | 85.5 µM (inactive) |  | > 100 µM (inactive) | > 100 µM (inactive) | 23.3 µM (inactive) | > 100 µM (inactive) | > 100 |  | > 100 µM (inactive) | 13.2 µM (inactive) | > 100 µM (inactive) | 73.6 µM (inactive) | 53.6 µM (inactive) | > 100 µM (inactive) | > 100 µM (inactive) | > 100 µM (inactive) |
| CSc1nc(-c2cc3c(c(SC)n2)CCCCC3)cc2c1CCCCC2 | > 100 µM (inactive) | > 100 µM (inactive) | > 100 µM (inactive) | > 100 µM (inactive) | > 100 µM (inactive) | > 100 µM (inactive) | > 100 µM (inactive) | > 100 µM (inactive) | > 100 |  | 50.1 µM (inactive) |  | > 100 µM (inactive) | > 100 µM (inactive) | > 100 µM (inactive) | > 100 µM (inactive) | > 100 µM (inactive) | > 100 µM (inactive) |
| N=c1oc2cc(O)ccc2cc1C(=O)Nc1ccccn1 | 51.9 µM (inactive) | 25.4 µM (inactive) | 44.5 µM (inactive) | 92.9 µM (inactive) | 44.5 µM (inactive) | 34.3 µM (inactive) | 30.5 µM (inactive) | 40.2 µM (inactive) | 51.5 | 32.7 µM (inactive) | 37.2 µM (inactive) |  | 72.4 µM (inactive) | 80.9 µM (inactive) | 1.78 µM (inactive) | 23.4 µM (inactive) | > 100 µM (inactive) |  |
| O=C1/C(=C/c2ccc([N+](=O)[O-])cc2)CCCc2ccccc21 | > 100 µM (inactive) | > 100 µM (inactive) | > 100 µM (inactive) | 32.1 µM (inactive) | > 100 µM (inactive) | > 100 µM (inactive) | > 100 µM (inactive) | 48.6 µM (inactive) | 69.2 |  | > 100 µM (inactive) | > 100 µM (inactive) | > 100 µM (inactive) | > 100 µM (inactive) | > 100 µM (inactive) | > 100 µM (inactive) | > 100 µM (inactive) | > 100 µM (inactive) |
| CC(=O)N1CC(C)(C)c2c(C)c(O)c(C)c(C)c21 |  | > 100 µM (inactive) | > 100 µM (inactive) | > 100 µM (inactive) | > 100 µM (inactive) | > 100 µM (inactive) | > 100 µM (inactive) | > 100 µM (inactive) | > 100 | > 100 µM (inactive) | > 100 µM (inactive) |  | > 100 µM (inactive) | > 100 µM (inactive) | > 100 µM (inactive) | > 100 µM (inactive) | > 100 µM (inactive) | > 100 µM (inactive) |
| C=CCOc1ccc(C2c3c(n[nH]c3O)CC(O)(OCC)C2C(=O)OCC)cc1OC (stereo unspecified) | > 100 µM (inactive) | > 100 µM (inactive) | > 100 µM (inactive) | > 100 µM (inactive) | > 100 µM (inactive) | > 100 µM (inactive) | > 100 µM (inactive) | > 100 µM (inactive) | > 100 | > 100 µM (inactive) |  |  | > 100 µM (inactive) | > 100 µM (inactive) | > 100 µM (inactive) | > 100 µM (inactive) | > 100 µM (inactive) | > 100 µM (inactive) |
